Values quoted from earlier work in US20210393726A1, “USE OF EXTRACT OF VEGETATION WATERS IN THE REGENERATION OF EPITHELIAL TISSUE” (FATTORIA LA VIALLAD DI GIANNI, ANTONIO E BANDINO LO FRANCO …, priority 2017, published 2021).

Conditions: high concentrations, up to 250-500 mg/kg/day

## OCCc1ccc(O)c(O)c1 [Hydroxytyrosol, hydroxytyrosol]
  toxic effect on in vivo administration: does not have any toxic effect
